Data on 10 molecules can be found in patent US5240957A, “Oxysalicylamido derivatives” (Astra Lakemedel Akteibolag, priority 1984, dated 1993).

pIC50: −log10 of the molar value.

For one experiment, the system named is apomorphine syndrome. The following applies: claimed in prior art; cited from earlier work.
A further experiment addresses T1, dopamine receptors (Rattus norvegicus, UniProt P61169).
T1 construct: The striata were dissected, pooled and homogenized in 50 mM Tris-HCl buffer (pH 7.6); from tissue; host or cells: striata of male Sprague-Dawley rats, membrane fraction
The experiment can be described thus: Receptor binding assay: in vitro block of 3H-spiperone binding, rat striatal membranes. As to conditions: rat striatum; 3H-spiperone 0.4 nM; 10 minutes at 37° C. Set-up: species or system Male Sprague-Dawley rats. The method, then:
The assays have been carried out using a cell harvester equipment. The incubations were made in quadruplicate, each well containing membrane suspension (2.5 mg/0.5 ml), ^3 H-spiperone (0.4 nM) and the test compound in a final volume of 0.5 ml. After incubation for 10 minutes at 37° C., the contents of the wells were rapidly filtered and washed on Whatman GF/B filters using the Cell harvester. The specific binding was defined as the difference of ligand bound in the […] of 1 μM (+)-butaclamol. The test results are expressed as IC50.

Experiment [1] deals with DA receptors linked to the nigro neostriatal DA system (apomorphine stereotypies). The experiment can be described thus: Reduction of apomorphine-induced stereotypies in the rat. The format is in vivo, Male Sprague-Dawley rats. As to conditions: i.p.; 60 min prior to apomorphine hydrochloride 1 mg/kg s.c.; 60 min observation. The source says: (§1) There are presently several techniques available to study DA receptor blockage in the brain in vivo. One method is based on the ability of antipsychotic drugs to block the behavioral effects induced by the DA agonist apomorphine in the rat. Several studies indicate an excellent correlation between the in vivo DA receptor blockage as measured in the apomorphine test and therapeutic efficacy of different antipsychotic drugs. Apomorphine produces in rats and other species a characteristic syndrome consisting of repetitive movements (stereotypies) and hyperactivity which appear to be due to activation of postsynaptic DA receptors in the brain (J. Pharm. Pharmacol. 19, 627, 1967; J. Neurol. transm. 40, 97-113, 1977). […]
Directly after injection, the animals were placed in the cages, one in each cage. […] The strength of the stereotype was scored on a 0-3 scale as follows:
(§2) In the second system the number of animals displaying hyperactivity caused by apomorphine were scored. […] The ED50 were calculated from log dose-response curves by the method of least squares from 4-6 dose levels with 6-8 animals per dose level.

Experiment [2] relates to DA receptors in subcortical mesolimbic structures (apomorphine hyperactivity). The experiment can be described thus: Reduction of apomorphine-induced hyperactivity in the rat. The experiment is classed as in vivo, Male Sprague-Dawley rats. The following applies: i.p.; 60 min prior to apomorphine hydrochloride 1 mg/kg s.c.; 60 min observation.
Excerpt: as §1, with “1977). The stereotypies (chewing, licking, biting) appear mainly to be induced via activation of DA receptors linked to the nigro neostriatal DA system (J. Psychiat. Res., 11, 1, 1974) whereas the increased locomotion (hyperactivity) mainly appears to be due to activation of DA receptors in subcortical mesolimbic structures (nucleus olfactorium, nucleus accumbens) i.e. the mesolimbic DA system. (J. Pharm. Pharmacol. 25, 1003, 1973).” for “1977).”
as §2

T1 sequence (P61169 whole entry): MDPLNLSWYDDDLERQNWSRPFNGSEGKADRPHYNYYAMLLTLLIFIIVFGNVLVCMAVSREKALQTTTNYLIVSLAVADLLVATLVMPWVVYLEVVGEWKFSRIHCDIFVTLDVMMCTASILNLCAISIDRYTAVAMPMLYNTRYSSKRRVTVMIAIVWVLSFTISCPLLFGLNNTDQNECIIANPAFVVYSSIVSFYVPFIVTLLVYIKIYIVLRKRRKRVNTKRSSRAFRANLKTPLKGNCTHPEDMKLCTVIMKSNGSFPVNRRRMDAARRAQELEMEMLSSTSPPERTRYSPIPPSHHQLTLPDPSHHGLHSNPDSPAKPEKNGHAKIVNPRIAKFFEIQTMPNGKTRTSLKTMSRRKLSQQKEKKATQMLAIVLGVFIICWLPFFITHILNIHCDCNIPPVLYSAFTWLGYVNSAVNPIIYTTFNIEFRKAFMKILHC

Turning to `CCN1CCCC1CNC(=O)c1c(O)c(Cl)cc(Cl)c1OC` (centres unmarked), the “antagonism/inhibition of the apomorphine syndrome in the rat” value with apomorphine syndrome was “potent inhibitors”.
What is called pIC50 is the IC50 on a negative log10 scale, so that one unit is a factor of ten. Read a high pIC50 as a small IC50. `COc1cc(Br)c(O)c(C(=O)NC[C@H]2CCCN2Cc2ccc(F)cc2)c1OC` gave a pIC50 on dopamine receptors of 8.89.
The same measure, in the same setting: under `CCCc1cc(OC)c(OC)c(C(=O)NC[C@@H]2CCCN2CC)c1O` stands 8.62.
Regarding `CCN1CCC[C@H]1CNC(=O)c1c(OC)ccc(Br)c1OC` [Remoxipride], in the experiment with apomorphine syndrome, the “antagonism/inhibition of the apomorphine syndrome in the rat” value was “potent antagonist”.
Consider `CCN1CCC[C@H]1CNC(=O)c1c(O)c(Cl)cc(OC)c1OC`, for which the pIC50 at dopamine receptors is 9.52.
Still for that read-out and setting: under `C=CCN1CCC[C@H]1CNC(=O)c1c(O)c(Br)cc(OC)c1OC` stands 8.64.
On to `CCN1CCC[C@H]1CNC(=O)c1c(O)c(Cl)cc(Cl)c1OC`, for which the “Reduction of stereotypies ED50” value in experiment [1] is 2.4 µmol/kg. Moreover, the “Reduction of hyperactivity ED50” value in experiment [2] amounted to 0.11 µmol/kg.
Turning to `CCN1CCC[C@H]1CNC(=O)c1c(O)ccc(OC)c1OC`, the pIC50 on dopamine receptors is 8.06.
On the same count and under the same terms, under `CCN1CCC[C@H]1CNC(=O)c1c(O)c(Br)cc(OC)c1OC` stands 8.85; under `CCc1cc(OC)c(OC)c(C(=O)NC[C@@H]2CCCN2CC)c1O`, 8.89.
